Here are results for 32 compounds from patent US9187472B2 (AbbVie Inc., priority 2012, dated 2015).

The assay deals with PC3 cells. As to the kind of experiment: NAMPT Cell Proliferation Assay. The format is cell-based. The conditions noted are these: Homo sapiens, PC-3, 120 h, 5 days incubation, cell viability by Cell Titer Glo. The method, then:
NAMPT Cell Proliferation Assay
PC3 cells were seeded in 96-well black plates (Corning #3904) at 500 cells/well in 90 μl of RPMI media containing 10% heat-inactivated FBS and incubated overnight at 37° C. and 5% CO2 to allow cells to attach to wells. The following day, test compounds were serially diluted in neat DMSO to 1000× final concentrations prior to dilution with RPMI media to 10× and 1% DMSO. Ten μL of the 10× compounds were then transferred to wells containing cells to produce a dose response of 10-fold dilutions from 10 μM to 1×10^−5 μM. Cells were incubated for 5 days at 37° C. and 5% CO2, then cell viability was measured using Cell Titer Glo reagent (Promega #G7571). Percent inhibition values were calculated and fitted to a sigmoidal dose response curves using Assay Explorer software to determine IC50s.
Take `Cc1cc(C(=O)N2CCC(c3ccc(C(=O)NCc4ccn5ccnc5c4)cc3)CC2)cnc1C` [Example 1007, 4-{1-[(5,6-dimethylpyridin-3-yl)carbonyl]piperidin-4-yl}-N-(imidazo[1,2-a]pyridin-7-ylmethyl)benzamide]: the IC50 stood at 37.3 nM. In other words, the double-digit nanomolar range.
`O=C(NCc1ccn2ccnc2c1)c1ccc(C2CCN(C(=O)c3ccc(C4CC4)cn3)CC2)cc1` [Example 1094, 4-{1-[(5-cyclopropylpyridin-2-yl)carbonyl]piperidin-4-yl}-N-(imidazo[1,2-a]pyridin-7-ylmethyl)benzamide] showed an IC50 of 68.8 nM.
In the case of `O=C(NCc1ccc2ncnn2c1)c1ccc(C2CCN(C(=O)C3CCOCC3)CC2)s1` [Example 849, 5-[1-(tetrahydro-2H-pyran-4-ylcarbonyl)piperidin-4-yl]-N-([1,2,4]triazolo[1,5-a]pyridin-6-ylmethyl)thiophene-2-carboxamide], 63.6 nM corresponded to half-maximal inhibition (IC50). This IC50 and that of the compound before are within 1.5-fold of each other.
In the case of `O=C(NCc1ccn2ccnc2c1)Nc1ccc(C2CCN(C(=O)c3coc4ccccc34)CC2)cc1` [Example 1135, 1-{4-[1-(1-benzofuran-3-ylcarbonyl)piperidin-4-yl]phenyl}-3-(imidazo[1,2-a]pyridin-7-ylmethyl)urea], half-maximal inhibition (IC50) was put at 4.23 nM.
`O=C(NCc1ccn2ccnc2c1)c1ccc(NC(=O)c2ccccc2F)cc1` [Example 874, 2-fluoro-N-{4-[(imidazo[1,2-a]pyridin-7-ylmethyl)carbamoyl]phenyl}benzamide] registered an IC50 of 6650 nM. This IC50 is about 1600-fold higher than that of the compound before.
`O=C(NCc1ccn2ccnc2c1)c1ccc(C2CCN(C(=O)c3ccc4scnc4c3)CC2)cc1` [Example 1085, 4-[1-(1,3-benzothiazol-5-ylcarbonyl)piperidin-4-yl]-N-(imidazo[1,2-a]pyridin-7-ylmethyl)benzamide]: the IC50 came out at 25.6 nM.
To `C/C=C(\C)C(=O)N1CCC(c2ccc(NC(=O)NCc3ccn4ccnc4c3)cc2)CC1` [Example 955, 1-(imidazo[1,2-a]pyridin-7-ylmethyl)-3-(4-{1-[(2E)-2-methylbut-2-enoyl]piperidin-4-yl}phenyl)urea] belongs 2.56 nM; to `O=C(NCc1ccn2ccnc2c1)Nc1ccc(C2CCN(C(=O)c3scnc3Cl)CC2)cc1` [Example 1138, 1-(4-{1-[(4-chloro-1,3-thiazol-5-yl)carbonyl]piperidin-4-yl}phenyl)-3-(imidazo[1,2-a]pyridin-7-ylmethyl)urea], 3.85 nM; to `O=C(NCc1ccn2ccnc2c1)c1ccc(C2CCN(C(=O)c3ccc4cccnc4c3)CC2)cc1` [Example 984, N-(imidazo[1,2-a]pyridin-7-ylmethyl)-4-[1-(quinolin-7-ylcarbonyl)piperidin-4-yl]benzamide], 55.4 nM.
In turn, `O=C(NCc1cn2ccnc2cn1)c1ccc(C2CCN(C(=O)c3ccccc3F)CC2)s1` [Example 827, 5-[1-(2-fluorobenzoyl)piperidin-4-yl]-N-(imidazo[1,2-a]pyrazin-6-ylmethyl)thiophene-2-carboxamide] returned an IC50 of 0.625 nM.
`O=C(NCc1ccn2ccnc2c1)Nc1ccc(C2CCN(C(=O)c3ccn(C4CCCC4)n3)CC2)cc1` [Example 1021, 1-(4-{1-[(1-cyclopentyl-1H-pyrazol-3-yl)carbonyl]piperidin-4-yl}phenyl)-3-(imidazo[1,2-a]pyridin-7-ylmethyl)urea]: the 50% inhibitory concentration (IC50) is 1.11 nM.
Compound `CC(C)(C)OC(=O)N1CCC(c2ccc(NC(=O)NCc3ccn4ccnc4c3)c(F)c2)CC1` [Example 912, tert-butyl 4-(3-fluoro-4-{[(imidazo[1,2-a]pyridin-7-ylmethyl)carbamoyl]amino}phenyl)piperidine-1-carboxylate] displayed an IC50 of 8.72 nM.
In the case of `O=C(NCc1ccn2ccnc2c1)Nc1ccc(C2CCN(C(=O)c3cnc4c(c3)CCCC4)CC2)cc1` [Example 1035, 1-(imidazo[1,2-a]pyridin-7-ylmethyl)-3-{4-[1-(5,6,7,8-tetrahydroquinolin-3-ylcarbonyl)piperidin-4-yl]phenyl}urea], the IC50 stood at 3.04 nM.
Consider `O=C(NCc1ccn2ccnc2c1)c1ccc(C2CCN(C(=O)c3nc4c(s3)CCCC4)CC2)cc1` [Example 1000, N-(imidazo[1,2-a]pyridin-7-ylmethyl)-4-[1-(4,5,6,7-tetrahydro-1,3-benzothiazol-2-ylcarbonyl)piperidin-4-yl]benzamide], for which the IC50 was determined as 81.8 nM.
The compound `O=C(NCc1ccc2ncnn2c1)c1ccc(C2CCN(C(=O)CC(F)(F)F)CC2)s1` [Example 846, N-([1,2,4]triazolo[1,5-a]pyridin-6-ylmethyl)-5-[1-(3,3,3-trifluoropropanoyl)piperidin-4-yl]thiophene-2-carboxamide] came in with an IC50 of 74.4 nM.
The figure for `O=C(NCc1ccn2ccnc2c1)c1ccc(-c2cnn(CC34CC5CC(CC(C5)C3)C4)c2)s1` [Example 884] is 0.968 nM; for `O=C(NCc1ccn2ccnc2c1)Nc1ccc(C2CCN(C(=O)C3(c4ccccn4)CC3)CC2)cc1` [Example 1020, 1-(imidazo[1,2-a]pyridin-7-ylmethyl)-3-[4-(1-{[1-(pyridin-2-yl)cyclopropyl]carbonyl}piperidin-4-yl)phenyl]urea] it is 0.901 nM; for `COc1ncc(C)cc1C(=O)N1CCC(c2ccc(NC(=O)NCc3ccn4ccnc4c3)cc2)CC1` [Example 1147, 1-(imidazo[1,2-a]pyridin-7-ylmethyl)-3-(4-{1-[(2-methoxy-5-methylpyridin-3-yl)carbonyl]piperidin-4-yl}phenyl)urea] it is 2.83 nM.
With `COc1ccc(C(=O)N2CCC(c3ccc(NC(=O)NCc4ccn5ccnc5c4)cc3)CC2)nc1OC` [Example 1148, 1-(4-{1-[(5,6-dimethoxypyridin-2-yl)carbonyl]piperidin-4-yl}phenyl)-3-(imidazo[1,2-a]pyridin-7-ylmethyl)urea], half-maximal inhibition (IC50) was put at 2.72 nM.
For `O=C(NCc1ccn2ccnc2c1)c1ccc(C2CCN(C(=O)COC3CCCCC3)CC2)cc1` [Example 971, 4-{1-[(cyclohexyloxy)acetyl]piperidin-4-yl}-N-(imidazo[1,2-a]pyridin-7-ylmethyl)benzamide], half-maximal inhibition (IC50) was put at 22.6 nM.
The figure for `O=C(NCc1ccn2ccnc2c1)c1ccc(C2CCN(C(=O)c3cccc4ncsc34)CC2)cc1` [Example 1010, 4-[1-(1,3-benzothiazol-7-ylcarbonyl)piperidin-4-yl]-N-(imidazo[1,2-a]pyridin-7-ylmethyl)benzamide] is 5.8 nM; for `CC(C)CS(=O)(=O)CC(=O)N1CCC(c2ccc(C(=O)NCc3ccn4ccnc4c3)cc2)CC1` [Example 929, N-(imidazo[1,2-a]pyridin-7-ylmethyl)-4-(1-{[(2-methylpropyl)sulfonyl]acetyl}piperidin-4-yl)benzamide] it is 24.7 nM; for `O=C(NCc1ccc2ncnn2c1)c1ccc(C2CCN(C(=O)c3ccc(F)cc3)CC2)s1` [Example 833, 5-[1-(4-fluorobenzoyl)piperidin-4-yl]-N-([1,2,4]triazolo[1,5-a]pyridin-6-ylmethyl)thiophene-2-carboxamide] it is 70 nM.
`Cn1cc2c(C(=O)N3CCC(c4ccc(NC(=O)NCc5ccn6ccnc6c5)cc4)CC3)cccc2n1` [Example 1149, 1-(imidazo[1,2-a]pyridin-7-ylmethyl)-3-(4-{1-[(2-methyl-2H-indazol-4-yl)carbonyl]piperidin-4-yl}phenyl)urea]: half-maximal inhibition (IC50) required 2.62 nM.
To `O=C(NCc1ccn2ccnc2c1)c1ccc(-c2cc(C3CC3)nn2Cc2ccccc2)s1` [Example 857, 5-(1-benzyl-3-cyclopropyl-1H-pyrazol-5-yl)-N-(imidazo[1,2-a]pyridin-7-ylmethyl)thiophene-2-carboxamide] belongs 1.55 nM.
In turn, `O=C(NCc1ccn2ccnc2c1)c1ccc(C2CCN(C(=O)c3cccc4c3OCCO4)CC2)cc1` [Example 978, 4-[1-(2,3-dihydro-1,4-benzodioxin-5-ylcarbonyl)piperidin-4-yl]-N-(imidazo[1,2-a]pyridin-7-ylmethyl)benzamide] yielded an IC50 of 2.02 nM. This IC50 and that of the compound before are within 1.5-fold of each other.
As for `COc1ccc(C(=O)N2CCC(c3ccc(C(=O)NCc4ccn5ccnc5c4)cc3)CC2)cc1F` [Example 915, 4-[1-(3-fluoro-4-methoxybenzoyl)piperidin-4-yl]-N-(imidazo[1,2-a]pyridin-7-ylmethyl)benzamide], half-maximal inhibition (IC50) was put at 174 nM.
`O=C(NCc1ccn2ccnc2c1)c1ccc(C2CCN(C(=O)c3cc(C4CC4)on3)CC2)cc1` [Example 973, 4-{1-[(5-cyclopropyl-1,2-oxazol-3-yl)carbonyl]piperidin-4-yl}-N-(imidazo[1,2-a]pyridin-7-ylmethyl)benzamide] came in with an IC50 of 21.8 nM. This IC50 is about 8-fold lower than that of the compound before.
`O=C(NCc1ccn2ccnc2c1)Nc1ccc(C2CCN(C(=O)C3CCOCC3)CC2)cc1F` [Example 1074, 1-{2-fluoro-4-[1-(tetrahydro-2H-pyran-4-ylcarbonyl)piperidin-4-yl]phenyl}-3-(imidazo[1,2-a]pyridin-7-ylmethyl)urea] registered an IC50 of 14.4 nM.
To `CC(Oc1ccccc1)C(=O)N1CCC(c2ccc(C(=O)NCc3ccn4ccnc4c3)cc2)CC1` (centres unmarked) [Example 930, N-(imidazo[1,2-a]pyridin-7-ylmethyl)-4-[1-(2-phenoxypropanoyl)piperidin-4-yl]benzamide] belongs 2.09 nM.
In turn, `O=C(Cc1ccc2nccn2c1)Nc1ccc(C2CCN(C(=O)c3ccccc3F)CC2)cc1` [Example 863, N-{4-[1-(2-fluorobenzoyl)piperidin-4-yl]phenyl}-2-(imidazo[1,2-a]pyridin-6-yl)acetamide] showed an IC50 of 0.642 nM.
Regarding `O=C(NCc1ccn2ccnc2c1)Nc1ccc(C2CCN(C(=O)c3onc4c3CCCC4)CC2)cc1` [Example 1015, 1-(imidazo[1,2-a]pyridin-7-ylmethyl)-3-{4-[1-(4,5,6,7-tetrahydro-2,1-benzoxazol-3-ylcarbonyl)piperidin-4-yl]phenyl}urea], the IC50 was found to be 1.68 nM. Against the preceding compound, the IC50 is about 2.6-fold higher.
